Test results taken from US20030175270A1, “Methods of regulating cytokine receptor signaling” (priority 2002, published 2003).

What was measured:
[1] = tested on: JAK2; assay: JAK2 activation/phosphorylation in IL-3 stimulated BMMCs treated with Src inhibitor; type: cell-based, mouse
Experimental: (§1) Murine BMMCs, splenic B cells, thymocytes, peritoneal macrophages and Jurkat T-cell lines were stimulated with various cytokines. For immunoprecipitations, lysates were incubated with antibodies conjugated with agarose or Sepharose beads for 2 h at 4° C. Total cell lysates or immunoprecipitates were separated using SDS-polyacrylamide gel electrophoresis, transferred onto membranes and immunoblotted. COS cells were transfected using diethylaminoethyl-dextron transfection technique with wild-type or PTPase-dead CD45 (D1:C828s) as described [McKenney et al., J. Biol. Chem. 270:24949-24954, 1995].
For tyrosine phosphatase assays, immunoprecipitated Lyn, JAKs or STATs from lysates of 10^7 BMMCs (for Lyn, JAK1, JAK2, STAT3 and STAT5) or macrophages (for Tyk2) were washed in lysis buffer and phosphatase reaction buffer [Felberg et al., J. Biol. Chem. 273:17839-17845, 1998]. The amounts of Lyn and JAK2 in the immunoprecipitates used in FIG. 3A were 72 ng and 48 ng, respectively, as determined by silver staining. […] Tyrosine phosphorylation was monitored by immunoblotting with phosphotyrosine-specific antibodies. The extent of tyrosine phosphorylation and amount of substrates were determined by quantifying the intensities of the immunoblots with NIH Image 1.61 software. […]

[2] = tested on: STAT3; assay: STAT3 Tyr 705 phosphorylation in IL-3 stimulated BMMCs treated with Src inhibitor; type: cell-based, mouse; settings: IL-3 stimulated cd45+/+ or cd45-/- BMMCs
Experimental: as §1
(§2) Experiments were designed in order to assess whether Src kinases, known substrates of CD45, were deregulated during hyperactivation of the JAK-STAT pathway in cd45^−/− BMMCs. […] In addition, in IL-3 stimulated cd45^+/+ or cd45 ^−/− BMMCs, treatment with PP2 had no effect on the increased phosphorylation of the specific residues Tyr 1007 and TYR1008 in JAK2, Tyr 705 in STAT3, and Tyr 1022 and Tyr 1023 in JAK1 (see FIG. 2).

[3] = tested on: JAK1; assay: JAK1 Tyr 1022/Tyr 1023 phosphorylation in IL-3 stimulated BMMCs treated with Src inhibitor; type: cell-based, mouse; settings: IL-3 stimulated cd45+/+ or cd45-/- BMMCs
Experimental: as §1, §2

[4] = tested on: Coxsackievirus B3 (CVB3); assay: CVB3 replication in Jurkat cells, plaque-forming assay; type: cell-based, human; settings: IFN-α 1,000 units/ml pretreatment 4 h; cd45-deficient vs parental Jurkat cells
Experimental: For Coxsackievirus infections in vitro, Jurkat cells were pretreated with IFN-α (1,000 units ml−^1) for 4 h and inoculated in triplicate with 3×10^5 CVB3 for 1 h at 37° C. Cells were then washed to remove excess IFN-α and excess CBV3 virus, and resuspended in RPMI medium containing 10% FBS. After 24 h, culture supernatants were analyzed for the presence of infectious CVB3 by using plaque-forming assays in HeLa cell monolayers. For CVB3 infections in vivo , the cd45mutation was backcrossed onto an A/J (H2^k/k ) background for five generations. A/J (H2^k/k) mice are highly susceptible to acute and chronic CVB3 infections. Four-week-old mice were inoculated intraperitoneally with 10^5 plaque-forming units of CVB3. For lethality scores, cd45−^/− (n=25) and cd45^± (n=22) littermate mice were monitored daily after infection. […] At defined time points, mice were sacrificed and organs were processed for histology. Sections from eight mice per group were stained with haematoxylin/eosin and Masson blue. In all experiments, the CVB3 strain Gauntt-Chow was used.
IFN-α and IFN-α R-regulated signaling are critical for replication of the picomavirus Coxsackievirus B3 (CVB3) in vitro and CVB3 infections in vivo [Kandolf et al., J. Mol. Cell. Cardiol. 17:167-181, 1985]. […] CVB3 titres were measured after infection of parental or cd45-deficient Jurkat cell lines. […]

[5] = target: T1, rCD45 (Homo sapiens, UniProt P08575); assay: inhibition of rCD45-mediated JAK2 dephosphorylation; type: biochemical; settings: 0.1 mM Na3 VO4, 10 U rCD45
T1 construct: The rCD45 employed contained the intracellular dual PTPase domains with a relative molecular mas of 97,000 (Mr 97K); purchased Calbiochem
T1 sequence (P08575 599-1306 limits assumed): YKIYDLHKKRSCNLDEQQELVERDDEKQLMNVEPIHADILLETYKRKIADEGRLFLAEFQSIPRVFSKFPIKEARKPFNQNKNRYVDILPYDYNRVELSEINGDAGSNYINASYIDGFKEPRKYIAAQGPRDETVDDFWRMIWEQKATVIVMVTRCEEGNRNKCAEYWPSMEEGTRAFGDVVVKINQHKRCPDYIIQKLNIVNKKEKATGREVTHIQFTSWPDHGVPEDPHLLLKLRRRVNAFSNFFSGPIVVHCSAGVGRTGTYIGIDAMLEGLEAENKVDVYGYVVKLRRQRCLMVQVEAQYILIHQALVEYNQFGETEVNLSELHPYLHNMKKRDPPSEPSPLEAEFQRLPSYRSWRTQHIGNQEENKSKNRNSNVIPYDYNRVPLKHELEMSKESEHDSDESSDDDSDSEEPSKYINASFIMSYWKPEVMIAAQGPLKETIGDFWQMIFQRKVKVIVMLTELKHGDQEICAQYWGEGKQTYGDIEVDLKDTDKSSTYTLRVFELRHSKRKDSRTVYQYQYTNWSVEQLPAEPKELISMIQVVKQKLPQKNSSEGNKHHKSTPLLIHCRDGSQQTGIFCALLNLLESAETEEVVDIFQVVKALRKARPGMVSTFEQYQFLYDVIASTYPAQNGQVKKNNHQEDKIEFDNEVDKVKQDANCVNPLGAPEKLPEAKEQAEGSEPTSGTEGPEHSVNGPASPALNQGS
Experimental: For tyrosine phosphatase assays, immunoprecipitated Lyn, JAKs or STATs from lysates of 10^7 BMMCs (for Lyn, JAK1, JAK2, STAT3 and STAT5) or macrophages (for Tyk2) were washed in lysis buffer and phosphatase reaction buffer [Felberg et al., J. Biol. Chem. 273:17839-17845, 1998]. The amounts of Lyn and JAK2 in the immunoprecipitates used in FIG. 3A were 72 ng and 48 ng, respectively, as determined by silver staining. Recombinant CD45 was added to substrates in the presence or absence of 0.1 mM Na3 VO4 followed by incubation at 30° C. for 20 min. Tyrosine phosphorylation was monitored by immunoblotting with phosphotyrosine-specific antibodies. The extent of tyrosine phosphorylation and amount of substrates were determined by quantifying the intensities of the immunoblots with NIH Image 1.61 software. Kinase activity in anti-Lyn or anti-JAK immunoprecipitates was assessed by an in vitro kinase assay with Raytide (Oncogen Science) as a substrate or using authophosphorylation [Lui et al., Genes Dev. 13:786-791, 1999]. In vitro binding assays were performed as described [Felberg et al., J. Biol. Chem. 273:17839-17845, 1998], using 1 μg of soluble GST, GST-CD45-D2, or GST-PTPase-dead CD45 (D1:C828S). EMSAs were as described [Charurvedi et al., Mol. Cell. Biol. 17:3295-3304, 1997]. The sequences of the EMSA probes were: STAT3, 5′-[…]-3′ (SEQ ID NO: 1); STAT3 mutant, 5′-[…]-3′ (SEQ ID NO: 2). […]

Compound: CC(C)(C)n1nc(-c2ccc(Cl)cc2)c2c(N)ncnc21 [PP2]
- increased phosphorylation of Tyr 1007 and Tyr 1008 in JAK2 ([1]; IL-3 stimulated cd45+/+ or cd45-/- BMMCs): no effect
- JAK2 activation ([1]; cd45+/+ and cd45-/- BMMCs, addition of the inhibitor): unaffected
- increased phosphorylation of Tyr 705 in STAT3 [2]: no effect
- increased phosphorylation of Tyr 1022 and Tyr 1023 in JAK1 [3]: no effect

Compound: IFN-α
- suppression of CVB3 viral amplification [4]: suppressed viral amplification more efficiently in cd45-deficient cells than in parental Jurkat cells

Compound: [Na+].[Na+].[Na+].[O]=[V]([O-])([O-])[O-] [vanadate, Na3 VO4]
- effect on rCD45-mediated JAK2 dephosphorylation [5]: inhibits
- effect on rCD45-mediated JAK2 dephosphorylation ([5]; listed as mandate): blocked JAK2 dephosphorylation
